Measured values reported in patent US20260325533A1, “CDK INHIBITOR COMPOUNDS” (ALEKSIA THERAPEUTICS, INC., priority 2023, published 2026).
Like-named read-outs stand apart in the source and are kept apart here. One block for each compound: values may come before it.

How the values were obtained:
Type in all cases: biochemical
CDK2/CCNE1 = CDK2/CCNE1 (Homo sapiens, UniProt P24941); experiment: CDK2 homogeneous time-resolved fluorescence (HTRF) kinase assay; conditions: CDK2/CCNE
In short: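 CDK2/CCNE1 (3 nM) preincubated 20 min at 23 °C with compound, then reacted 60 min at 23 °C with 1 mM ATP and 50 nM ULight-4E-BP1 (Thr37/46) peptide. Stopped with EDTA, phospho-peptide detected by Eu-anti-phospho antibody (665 nm or 665/615 ratio). IC50 from 11-point half-log titrations typically starting at 10 μM.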

CDK1/CCNB1 = CDK1/CCNB1 (Homo sapiens, UniProt P06493); experiment: CDK1 homogeneous time-resolved fluorescence (HTRF) kinase assay; conditions: CDK1/CCNB
Chain of CDK1/CCNB1 (P06493 whole entry): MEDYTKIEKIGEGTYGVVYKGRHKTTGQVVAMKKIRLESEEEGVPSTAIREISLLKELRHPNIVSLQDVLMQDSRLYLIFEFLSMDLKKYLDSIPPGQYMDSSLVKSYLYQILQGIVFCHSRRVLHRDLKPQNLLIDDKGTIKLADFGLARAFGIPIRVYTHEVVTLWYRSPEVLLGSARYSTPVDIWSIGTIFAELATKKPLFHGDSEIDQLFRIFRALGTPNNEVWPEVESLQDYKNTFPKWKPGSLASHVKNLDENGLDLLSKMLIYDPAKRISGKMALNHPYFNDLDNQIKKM
Chain of CDK1/CCNB1 (P14635 whole entry partner): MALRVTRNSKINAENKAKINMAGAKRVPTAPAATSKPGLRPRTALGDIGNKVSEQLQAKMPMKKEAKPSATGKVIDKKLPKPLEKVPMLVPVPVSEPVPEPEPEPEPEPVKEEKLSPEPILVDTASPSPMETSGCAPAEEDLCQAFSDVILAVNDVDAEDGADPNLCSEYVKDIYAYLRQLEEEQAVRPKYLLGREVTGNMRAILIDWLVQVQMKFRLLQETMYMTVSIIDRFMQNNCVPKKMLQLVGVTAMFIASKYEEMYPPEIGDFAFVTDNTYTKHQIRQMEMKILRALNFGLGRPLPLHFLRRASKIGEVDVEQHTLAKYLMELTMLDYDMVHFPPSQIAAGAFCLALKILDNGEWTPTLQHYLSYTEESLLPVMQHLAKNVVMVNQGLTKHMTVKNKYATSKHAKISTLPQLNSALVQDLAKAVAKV
In short: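 CDK1/CCNB1 0.5 nM + cpd, 20 min 23 °C; add 1 mM ATP, 50 nM ULight-4E-BP1 peptide, 60 min 23 °C; stop 10 mM EDTA; 2 nM Eu-Ab, 60 min; HTRF 665 nm. 11-pt half-log, top 10 μM typical; IC50.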

CDK6/CCND1 = CDK6/CCND1 (Homo sapiens, UniProt Q00534); experiment: CDK6 homogeneous time-resolved fluorescence (HTRF) kinase assay; conditions: CDK6/CCND
Chain of CDK6/CCND1 (Q00534 whole entry): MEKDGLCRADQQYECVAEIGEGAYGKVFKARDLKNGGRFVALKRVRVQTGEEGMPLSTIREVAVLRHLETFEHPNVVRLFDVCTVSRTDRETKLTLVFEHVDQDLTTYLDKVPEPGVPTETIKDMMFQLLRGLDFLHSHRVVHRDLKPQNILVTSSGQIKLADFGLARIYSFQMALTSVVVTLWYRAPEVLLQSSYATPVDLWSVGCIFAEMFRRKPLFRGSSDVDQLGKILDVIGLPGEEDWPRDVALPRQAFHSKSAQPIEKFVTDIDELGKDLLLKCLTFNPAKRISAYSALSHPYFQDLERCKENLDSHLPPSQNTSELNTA
Chain of CDK6/CCND1 (P24385 whole entry partner): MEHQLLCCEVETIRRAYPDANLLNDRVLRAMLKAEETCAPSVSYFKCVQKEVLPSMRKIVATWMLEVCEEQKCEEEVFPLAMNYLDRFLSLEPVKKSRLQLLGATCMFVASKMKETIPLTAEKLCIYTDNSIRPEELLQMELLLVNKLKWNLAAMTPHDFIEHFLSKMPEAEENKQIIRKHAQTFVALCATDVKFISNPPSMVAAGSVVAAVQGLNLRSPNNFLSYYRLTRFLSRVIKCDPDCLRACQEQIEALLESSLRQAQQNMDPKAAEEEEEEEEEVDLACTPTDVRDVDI
In short: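 Enzyme pre-incubated 20 min at 23 °C with compound, then reacted 60 min at 23 °C with 1 mM ATP and 50 nM ULight-4E-BP1 (Thr37/46) peptide; 1 nM enzyme, 1% DMSO. EDTA-stopped, Eu-anti-phospho antibody TR-FRET read (665 nm or 665/615 ratio); 11-point half-log titration from 10 μM gave IC50.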

CDK4/CCND3 = CDK4/CCND3 (Homo sapiens, UniProt P11802); experiment: CDK4 homogeneous time-resolved fluorescence (HTRF) kinase assay; conditions: CDK4/CCND
Chain of CDK4/CCND3 (P11802 whole entry): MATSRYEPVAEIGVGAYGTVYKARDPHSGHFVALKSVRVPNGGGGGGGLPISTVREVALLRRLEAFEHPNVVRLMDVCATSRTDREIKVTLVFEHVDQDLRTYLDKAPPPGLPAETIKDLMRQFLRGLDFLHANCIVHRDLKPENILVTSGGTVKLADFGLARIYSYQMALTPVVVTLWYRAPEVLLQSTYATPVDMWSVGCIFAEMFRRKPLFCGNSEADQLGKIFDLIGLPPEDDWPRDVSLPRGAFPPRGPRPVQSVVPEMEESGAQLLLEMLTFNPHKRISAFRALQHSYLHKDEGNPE
Chain of CDK4/CCND3 (P30281 whole entry partner): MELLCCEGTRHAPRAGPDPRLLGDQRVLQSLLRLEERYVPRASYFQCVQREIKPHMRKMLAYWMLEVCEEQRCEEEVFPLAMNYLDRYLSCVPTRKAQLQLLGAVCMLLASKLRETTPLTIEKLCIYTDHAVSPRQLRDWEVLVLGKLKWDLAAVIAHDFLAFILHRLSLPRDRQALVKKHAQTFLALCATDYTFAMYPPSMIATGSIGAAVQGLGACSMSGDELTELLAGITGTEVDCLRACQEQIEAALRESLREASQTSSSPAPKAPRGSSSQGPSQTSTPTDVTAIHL
In short: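 CDK4/CCND3 at 1.5 nM was preincubated with compound for 20 min at 23 °C, then reacted for 60 min with 1 mM ATP and 50 nM ULight-4E-BP1 (Thr37/46) peptide. The reaction was stopped with EDTA, and phosphorylation was read by HTRF with a Eu-anti-phospho antibody. IC50 values came from 11-point half-log titrations, typically from 10 μM.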

[1] = <25 nM, read-out: CDK2/CCNE IC50 <25 nM
[2] = >250 nM marked x, read-out: CDK1/CCNB IC50 >250 nM
[3] = 25-250 nM marked x, read-out: CDK4/CCND IC50 25-250 nM
[4] = 25-250 nM marked x, read-out: CDK1/CCNB IC50 25-250 nM
[5] = 25-250 nM marked x, read-out: CDK6/CCND IC50 25-250 nM
[6] = 25-250 nM, read-out: CDK2/CCNE IC50, 25-250 nM
[7] = >250 nM, read-out: CDK1/CCNB IC50 >250 nM
[8] = >250 nM, 1 mM ATP, read-out: CDK6/CCND IC50, >250 nM
[9] = >250 nM, read-out: CDK4/CCND IC50, >250 nM
[10] = x = IC50 <25 nM, read-out: CDK2/CCNE IC50 (<25 nM)
[11] = x = IC50 >250 nM, read-out: CDK1/CCNB IC50 (>250 nM column)
[12] = x = IC50 >250 nM, read-out: CDK6/CCND IC50 (>250 nM column)
[13] = x = IC50 25-250 nM, read-out: CDK4/CCND IC50 (25-250 nM)
[14] = x = IC50 >250 nM, read-out: CDK4/CCND IC50 (>250 nM column)
[15] = x = IC50 25-250 nM, read-out: CDK1/CCNB IC50 (25-250 nM)
[16] = x = IC50 25-250 nM, read-out: CDK2/CCNE IC50 (25-250 nM)

Compound: N#CC1CCN(c2nccc3cnc(Nc4ccc(S(N)(=O)=O)cc4)cc23)CC1 [Ex 187, 4-((5-(4-cyanopiperidin-1-yl)-2,6-naphthyridin-3-yl)amino)benzenesulfonamide]
IC50 (CDK2/CCNE1; [1]): < 25 nM
IC50 (CDK1/CCNB1; [4]): 25 to 250 nM
IC50 (CDK6/CCND1; [5]): 25 to 250 nM
IC50 (CDK4/CCND3; [3]): 25 to 250 nM

Compound: COc1cc(N2CCOCC2)cc(NS(=O)(=O)c2ccc(Nc3cc4c(-c5ccc6c(cnn6CC(O)(C(F)(F)F)C(F)(F)F)c5C)nccc4cn3)cc2)n1 [Ex 704, N-(6-methoxy-4-morpholinopyridin-2-yl)-4-((5-(4-methyl-1-(3,3,3-trifluoro-2-hydroxy-2-(trifluoromethyl)propyl)-1H-indazol-5-yl)-2,6-naphthyridin-3-yl)amino)benzenesulfonamide]
IC50 (CDK2/CCNE1; [6]): 25 to 250 nM
IC50 (CDK1/CCNB1; [7]): > 250 nM
IC50 (CDK6/CCND1; [8]): > 250 nM
IC50 (CDK4/CCND3; [9]): > 250 nM

Compound: CS(=O)(=O)c1ccc(Nc2cc3c(C#Cc4ccc5cn[nH]c5c4)nccc3cn2)cc1 [Ex 638, 5-((1H-indazol-6-yl)ethynyl)-N-(4-(methylsulfonyl)phenyl)-2,6-naphthyridin-3-amine]
IC50 (CDK2/CCNE1; [10]): < 25 nM
IC50 (CDK1/CCNB1; [11]): > 250 nM
IC50 (CDK6/CCND1; [12]): > 250 nM
IC50 (CDK4/CCND3; [13]): 25 to 250 nM

Compound: Cc1c(-c2nccc3cnc(Nc4ccc(S(C)(=O)=O)cc4)cc23)ccc2c1cnn2CC(N)=O [Ex 676, 2-(4-methyl-5-(7-((4-(methylsulfonyl)phenyl)amino)-2,6-naphthyridin-1-yl)-1H-indazol-1-yl)acetamide]
IC50 (CDK2/CCNE1; [10]): < 25 nM
IC50 (CDK1/CCNB1; [15]): 25 to 250 nM
IC50 (CDK6/CCND1; x = IC50 25-250 nM, read-out: CDK6/CCND IC50 (25-250 nM)): 25 to 250 nM
IC50 (CDK4/CCND3; [13]): 25 to 250 nM

Compound: Cc1nc(N)nc(C)c1C#Cc1nccc2cnc(Nc3ccc(S(C)(=O)=O)cc3)cc12 [Ex 541, 5-((2-amino-4,6-dimethylpyrimidin-5-yl)ethynyl)-N-(4-(methylsulfonyl)phenyl)-2,6-naphthyridin-3-amine]
IC50 (CDK2/CCNE1; [16]): 25 to 250 nM
IC50 (CDK1/CCNB1; [11]): > 250 nM
IC50 (CDK6/CCND1; [12]): > 250 nM
IC50 (CDK4/CCND3; [14]): > 250 nM

Compound: Cc1c(-c2nccc3cnc(Nc4ccc(S(C)(=O)=O)cc4Cl)cc23)ccc2c1cnn2CC(C)(C)O [Ex 847, 1-(5-(7-((2-chloro-4-(methylsulfonyl)phenyl)amino)-2,6-naphthyridin-1-yl)-4-methyl-1H-indazol-1-yl)-2-methylpropan-2-ol]
IC50 (CDK2/CCNE1; [6]): 25 to 250 nM
IC50 (CDK1/CCNB1; [7]): > 250 nM
IC50 (CDK6/CCND1; [8]): > 250 nM
IC50 (CDK4/CCND3; [9]): > 250 nM

Compound: COc1cc(NS(=O)(=O)c2ccc(Nc3cc4c(-c5ccc6c(cnn6CC(O)(C(F)(F)F)C(F)(F)F)c5C)nccc4cn3)cc2)nc(N2CCOCC2)c1 [Ex 703, N-(4-methoxy-6-morpholinopyridin-2-yl)-4-((5-(4-methyl-1-(3,3,3-trifluoro-2-hydroxy-2-(trifluoromethyl)propyl)-1H-indazol-5-yl)-2,6-naphthyridin-3-yl)amino)benzenesulfonamide]
IC50 (CDK2/CCNE1; [6]): 25 to 250 nM
IC50 (CDK1/CCNB1; [7]): > 250 nM
IC50 (CDK6/CCND1; [8]): > 250 nM
IC50 (CDK4/CCND3; [9]): > 250 nM

Compound: COc1cc(C#Cc2nccc3cnc(Nc4ccc(S(C)(=O)=O)cc4)cc23)ccn1 [Ex 660, 5-((2-methoxypyridin-4-yl)ethynyl)-N-(4-(methylsulfonyl)phenyl)-2,6-naphthyridin-3-amine]
IC50 (CDK2/CCNE1; [16]): 25 to 250 nM
IC50 (CDK1/CCNB1; [11]): > 250 nM
IC50 (CDK6/CCND1; [12]): > 250 nM
IC50 (CDK4/CCND3; [14]): > 250 nM

Compound: CS(=O)(=O)N1CCC(Nc2cc3c(-c4cc[nH]c4)nccc3cn2)CC1 [Ex 90, N-(1-(methylsulfonyl)piperidin-4-yl)-5-(1H-pyrrol-3-yl)-2,6-naphthyridin-3-amine]
IC50 (CDK2/CCNE1; [1]): < 25 nM
IC50 (CDK1/CCNB1; [2]): > 250 nM
IC50 (CDK6/CCND1; [5]): 25 to 250 nM
IC50 (CDK4/CCND3; [3]): 25 to 250 nM

Compound: CS(=O)(=O)c1ccc(Nc2cc3c(C#CCCO)nccc3cn2)cc1 [Ex 130, 4-(7-((4-(methylsulfonyl)phenyl)amino)-2,6-naphthyridin-1-yl)but-3-yn-1-ol]
IC50 (CDK2/CCNE1; [1]): < 25 nM
IC50 (CDK1/CCNB1; [4]): 25 to 250 nM
IC50 (CDK6/CCND1; [5]): 25 to 250 nM
IC50 (CDK4/CCND3; [3]): 25 to 250 nM

Second part, the compound after the results:

IC50 (CDK2/CCNE1; [1]): < 25 nM
IC50 (CDK1/CCNB1; [2]): > 250 nM
IC50 (CDK6/CCND1; >250 nM marked x, read-out: CDK6/CCND IC50 >250 nM): > 250 nM
IC50 (CDK4/CCND3; [3]): 25 to 250 nM
Compound: Cc1cc2c(cc1C#Cc1nccc3cnc(Nc4ccc(S(=N)(=O)C(C)C)cc4)cc13)NC(=O)C2(C)C (single isomer, unassigned) [Example 315, 3,3,5-trimethyl-6-((7-((4-(propan-2-ylsulfonimidoyl)phenyl)amino)-2,6-naphthyridin-1-yl)ethynyl)indolin-2-one]

IC50 (CDK2/CCNE1; [6]): 25 to 250 nM
IC50 (CDK1/CCNB1; [7]): > 250 nM
IC50 (CDK6/CCND1; [8]): > 250 nM
IC50 (CDK4/CCND3; [9]): > 250 nM
Compound: CN1CCN(c2ccc(C#Cc3nccc4cnc(Nc5ccc(S(=O)(=O)O)cc5)cc34)cc2)CC1 [Example 863, 4-((5-((4-(4-methylpiperazin-1-yl)phenyl)ethynyl)-2,6-naphthyridin-3-yl)amino)benzenesulfonic acid]

IC50 (CDK2/CCNE1; [10]): < 25 nM
IC50 (CDK1/CCNB1; [11]): > 250 nM
IC50 (CDK6/CCND1; [12]): > 250 nM
IC50 (CDK4/CCND3; [14]): > 250 nM
Compound: Cc1cc(Nc2cc3c(C#Cc4ccc5c(c4)NC(=O)C5(C)C)nccc3cn2)ccc1S(C)(=O)=O [Example 406, 3,3-dimethyl-6-((7-((3-methyl-4-(methylsulfonyl)phenyl)amino)-2,6-naphthyridin-1-yl)ethynyl)indolin-2-one]

IC50 (CDK2/CCNE1; [10]): < 25 nM
IC50 (CDK1/CCNB1; [15]): 25 to 250 nM
IC50 (CDK6/CCND1; [12]): > 250 nM
IC50 (CDK4/CCND3; [13]): 25 to 250 nM
Compound: CC1(CO)C(=O)Nc2cc(C#Cc3nccc4cnc(Nc5ccc(S(C)(=O)=O)cc5)cc34)ccc21 (racemic) [Example 391, 3-(hydroxymethyl)-3-methyl-6-((7-((4-(methylsulfonyl)phenyl)amino)-2,6-naphthyridin-1-yl)ethynyl)indolin-2-one]

IC50 (CDK2/CCNE1; [10]): < 25 nM
IC50 (CDK1/CCNB1; [11]): > 250 nM
IC50 (CDK6/CCND1; [12]): > 250 nM
IC50 (CDK4/CCND3; [14]): > 250 nM
Compound: CS(=O)(=O)c1ccc(Nc2cc3c(-c4ccc5c(cnn5CC(O)(C(F)(F)F)C(F)(F)F)c4Cl)nccc3cn2)cc1 (single isomer, unassigned) [Example 587, 2-((4-chloro-5-(7-((4-(methylsulfonyl)phenyl)amino)-2,6-naphthyridin-1-yl)-1H-indazol-1-yl)methyl)-1,1,1,3,3,3-hexafluoropropan-2-ol]

IC50 (CDK2/CCNE1; [6]): 25 to 250 nM
IC50 (CDK1/CCNB1; [7]): > 250 nM
IC50 (CDK6/CCND1; [8]): > 250 nM
IC50 (CDK4/CCND3; [9]): > 250 nM
Compound: N#Cc1ccc(C#Cc2nccc3cnc(Nc4ccc(S(=O)(=O)Nc5ccccn5)cc4)cc23)cc1 [Ex 935, 4-((5-((4-cyanophenyl)ethynyl)-2,6-naphthyridin-3-yl)amino)-N-(pyridin-2-yl)benzenesulfonamide]

IC50 (CDK2/CCNE1; [16]): 25 to 250 nM
IC50 (CDK1/CCNB1; [11]): > 250 nM
IC50 (CDK6/CCND1; [12]): > 250 nM
IC50 (CDK4/CCND3; [14]): > 250 nM
Compound: CS(=N)(=O)c1ccc(Nc2cc3c(C#Cc4cccnc4N)nccc3cn2)cc1 (stereo not drawn) [Example 490, (4-((5-((2-aminopyridin-3-yl)ethynyl)-2,6-naphthyridin-3-yl)amino)phenyl)(imino)(methyl)-λ^6-sulfanone]

IC50 (CDK2/CCNE1; <25 nM, read-out: CDK2/CCNE IC50, <25 nM): < 25 nM
IC50 (CDK1/CCNB1; [7]): > 250 nM
IC50 (CDK6/CCND1; 25-250 nM, 1 mM ATP, read-out: CDK6/CCND IC50, 25-250 nM): 25 to 250 nM
IC50 (CDK4/CCND3; 25-250 nM, read-out: CDK4/CCND IC50, 25-250 nM): 25 to 250 nM
Compound: Cc1c(-c2nccc3cnc(Nc4ccc([S@@](C)(=N)=O)cc4)cc23)ccc2c1cnn2CC(O)(C(F)(F)F)C(F)(F)F [Example 724, (S)-1,1,1,3,3,3-hexafluoro-2-((4-methyl-5-(7-((4-(S-methylsulfonimidoyl)phenyl)amino)-2,6-naphthyridin-1-yl)-1H-indazol-1-yl)methyl)propan-2-ol]
